Assay [1] concerns the target T1, PI5P4Kα (Homo sapiens, UniProt P48426).
T1 construct: made in house
T1 sequence (P48426 1-406): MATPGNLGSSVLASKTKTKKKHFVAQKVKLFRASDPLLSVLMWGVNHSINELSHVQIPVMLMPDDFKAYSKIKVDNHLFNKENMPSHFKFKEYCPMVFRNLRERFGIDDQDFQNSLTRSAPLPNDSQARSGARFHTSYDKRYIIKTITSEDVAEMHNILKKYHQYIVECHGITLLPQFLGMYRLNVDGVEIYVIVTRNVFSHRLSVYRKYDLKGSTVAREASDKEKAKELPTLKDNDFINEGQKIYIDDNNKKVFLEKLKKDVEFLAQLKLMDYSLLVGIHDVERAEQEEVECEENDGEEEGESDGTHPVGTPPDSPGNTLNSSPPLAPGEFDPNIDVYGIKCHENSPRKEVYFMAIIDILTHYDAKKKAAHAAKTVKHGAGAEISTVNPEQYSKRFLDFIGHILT
The assay is described as follows: Miniaturized 1536-well luciferase-coupled bioluminescence (ADP-Glo) PI5P4Kα enzyme activity assay. It is filed as biochemical. The settings on record: for inhibitory activity against PI5P4Kα (in words): miniaturized assay / LOPAC1280 screen. Here is the method:
PI5P4Kα (52.4 µL) was added to the lipid reagent (3 mL, described above) to form the enzyme-lipid mixture. First, 2 µL of the enzyme/lipid substrate reagent (2 µg/mL PI5P4Kα final concentration) were dispensed into a white solid-bottom 1536-well plate in columns 1–2, […] using a Flying Reagent Dispenser (FRD, Beckman Coulter, Fullerton, CA, USA). Into columns 3 and 4, 2 µL of a no-lipid and no-enzyme control were dispensed, respectively, where the lipid was replaced by DMSO or the enzyme was replaced by buffer (20 mM Hepes 7.4, 0.1% CHAPS) in the enzyme-lipid mixture. Then, 23 nL of the library compounds and control compounds were transferred by a 1536 pintool (Kalypsys Systems, San Diego, CA, USA) into wells 5–48 and 1–4, respectively. To initiate the reaction, 1 µL of the ATP solution (20 mM Hepes pH 7.4, 60 mM MgCl2, 0.015 mM ATP and 0.1% CHAPS) was added. The final concentration of DMSO in the reaction was 5%. The resulting mixture was incubated at room temperature in the dark for one hour, at which time 2 µL of ADP-Glo reagent 1 were added to stop the reaction and remove any remaining ATP. After a 45-minute incubation, 4 µL of the ADP-Glo reagent 2 were added and allowed to incubate for 30 minutes. The luminescence was then read with a ViewLux high-throughput CCD imager (Perkin Elmer, Waltham, MA, USA). A total of six plates were assayed: one DMSO plate for monitoring the background trends and five concentrations of the LOPAC library (152, 76, 15, 3 and 0.6 µM final assay concentrations, respectively). The top concentration in the assay was attained by two sequential pin transfers of the top concentration of the compound library.
Screening data were corrected and normalized, and concentration-response curves were derived using in-house algorithms. Overall assay performance, including trends in Z’ factor, % CV, and S/B, were recorded. Percent activity was computed after normalization using the median values of the uninhibited enzyme control (32 wells in column 1) and the no-enzyme, or 100% inhibited, control (32 wells, column 4). Additionally, the compound structures were evaluated, and the long chain compounds such as the C18 containing compounds from LOPAC^1280 that are likely to act by disrupting the lipid vesicles were eliminated. Selected actives were procured for re-testing in the primary screening assay and for use in the counter assays and substrate competition assay.

The target in a further assay is T2, GST-PI5P4Kα (Homo sapiens, UniProt P48426).
T2 construct: made in house
T2 sequence (P48426 1-406): T1 sequence (P48426 1-406)
The assay is described as follows: γ-32P-ATP incorporation assay and TLC (radiometric PI5P4K assay). It is filed as biochemical. The procedure:
The PI5P4K assay was carried out as described in [10], [22], [23]. Briefly, the kinase reaction was carried out in a total of 50 µL of kinase buffer containing 20 µL of the resuspended lipids, 50 mM HEPES pH 7.4, 10 mM MgCl2, 10 µM non-radiolabeled ATP, 10 µCi [γ-^32P]-ATP with 0.1 µg of GST-PI5P4Kα for 7 minutes at room temperature. The reaction was terminated by adding 20 µL of 4 N HCl. Phosphoinositides were extracted by adding 70 µL of methanol/chloroform (1∶1, vol:vol) mix and subjected to TLC (thin-layer chromatography) separation using heat-activated 2% […] silica gel 60 plates (20 cm×20 cm, EMD Chemicals Inc., Billerica, MA, USA) and a 1-propanol/2 M acetic acid (65∶35, vol:vol) solvent system. The radiolabeled product, PI(4,5)P2, was quantified with a Phosphorimager (Molecular Dynamics, STORM840, GE Healthcare, Waukesha, WI, USA).

For assay [2], the target named is T1, PI5P4Kα. The assay is described as follows: Substrate (ATP) competition assay, miniaturized ADP-Glo PI5P4Kα assay. It is filed as biochemical. The following applies: for mode of inhibition with respect to ATP: IC50 vs [ATP]/Km, seven ATP concentrations; for dependence of potency on ATP: varied ATP concentration. From the text: The experiment was otherwise conducted as described above for the miniaturized ADP-Glo enzyme assay.

For assay [3], the target named is T1, PI5P4Kα. The assay is described as follows: Miniaturized 1536-well luciferase-coupled bioluminescence (ADP-Glo) PI5P4Kα enzyme activity assay. Format: biochemical. The settings on record: freshly plated stock of reacquired compound, 11-point titration.
In another assay the test system is IGF1R. Set-up: method as in PMID 11123895. The settings on record: cited from earlier work.
Assay [4] has as its target insulin-like growth factor 1 receptor (IGF1R). On the set-up: method as in PMID 11123895. The following applies: cited from earlier work.
Where [5] appears, read: LOPAC1280 qHTS pilot screen, 5 µM ATP, 75 µM PI5P, 5% DMSO.

Structures are written as SMILES. Where “and” joins values, the source holds several entries; their conditions need not be identical. Equal values may be shown once. Entries after “also recorded” stand apart in the source; their conditions may differ.

`CCCCCCCCCCCCCCCCCCOC[C@H](COP(=O)(O)OCC[N+](C)(C)C)OC` [1-O-Octadecyl-2-O-methyl-sn-glycero-3-phosphorylcholine]: the “inhibitory activity against PI5P4Kα (in words)” value against PI5P4Kα [1] was “identified as inhibitors”.

As to `CC(C)(C)c1cc(C=C(C#N)C#N)cc(C(C)(C)C)c1O` [AG17], on GST-PI5P4Kα (tested at 100 µM), the “inhibition of PI5P4Kα (in words)” value was “not to significantly inhibit”.

`N#CC(C#N)=Cc1ccc(O)c(O)c1` [AG18]: the “inhibition of PI5P4Kα (in words)” value at GST-PI5P4Kα (tested at 100 µM) is “not to significantly inhibit”.

On to `COc1cc(/C=C(\C#N)C(=O)c2ccc(O)c(O)c2)cc(I)c1O` [I-OMe-AG-538], for which the IC50 against PI5P4Kα [1] (setting [5]) is 2.5 µM and 2 µM; against PI5P4Kα [3], 1 µM. For the same molecule, the “mode of inhibition with respect to ATP” value is “competitive inhibition; also recorded: competitive with respect to ATP” at PI5P4Kα [2] and “ATP-competitive inhibitor” on PI5P4Kα [2] (listed as I-OMe tyrphostin AG-538). Further, the Ki at PI5P4Kα [2] (seven ATP concentrations 0.25xKm to 10xKm, Km of ATP 5 µM) came out at 0.5 µM. Besides, the “inhibition of IGF1R in a cell assay (in words)” value with IGF1R was “inhibited IGF1R in a similar dose-dependent manner”.

For `COc1c(C)c2c(c(O)c1C/C=C(\C)CCC(=O)O)C(=O)OC2` [MP, mycophenolate], the “inhibition of PI5P4Kα (in words)” value against GST-PI5P4Kα (tested at 100 µM) is listed as “not to significantly inhibit”.

In the case of `CCCCCCCC/C=C\CCCCCCCC(=O)N[C@@H](CO)Cc1ccc(O)cc1` [OMDM-2, (R)-N-oleoyl Tyrosinol], the IC50 against PI5P4Kα [1] (weak inhibitors, ADP-Glo assay) is roughly 30 µM. Further, the “dependence of potency on ATP” value on PI5P4Kα [2] is “did not vary with ATP”.

As for `CC(C)[C@H](CO)Nc1nc(Nc2ccc(C(=O)O)c(Cl)c2)c2ncn(C(C)C)c2n1` [PVB, purvalanol B], the “inhibition of PI5P4Kα (in words)” value against GST-PI5P4Kα (tested at 10 µM due to solubility limitations) is on record as “not to significantly inhibit”.

For the molecule `Cc1[nH]c(/C=C2\C(=O)Nc3ccccc32)c(C)c1CCC(=O)O` [SU6668], at GST-PI5P4Kα (tested at 100 µM), the “inhibition of PI5P4Kα (in words)” value is reported as “not to significantly inhibit”.

Consider `N#CC(C#N)=Cc1cc(O)c(O)c(O)c1` [Tyrphostin AG-82], for which, on PI5P4Kα [1] (setting [5]), half-maximal inhibition (IC50) was put at 93 µM. Besides, the “inhibitory activity against PI5P4Kα (in words)” value against PI5P4Kα [1] is on record as “confirmed”. Besides, on GST-PI5P4Kα (tested at 100 µM), the inhibition at 100 µM was found to be 75%.

Regarding `CCCCCCCC/C=C\CCCCCCCC(N)=O` [oleamide], on PI5P4Kα [1] (weak inhibitors, ADP-Glo assay), the IC50 was roughly 30 µM. Moreover, at PI5P4Kα [2], the “dependence of potency on ATP” value is recorded as “did not vary with ATP”.

For `N#CC(C#N)=Cc1ccc(O)c(O)c1` [tyrphostin 23], the 50% inhibitory concentration (IC50) on PI5P4Kα [1] (setting [5]) is 45 µM.

On to `N#C/C(=C\c1ccc(O)c(O)c1)C(N)=S` [tyrphostin 47], for which the IC50 against PI5P4Kα [1] (setting [5]) came out at 20 µM.

On PI5P4Kα [1] (setting [5]), `N#CC(C#N)=C(N)/C(C#N)=C/c1cc(O)c(O)c(O)c1` [tyrphostin 51] gave an IC50 of 5 µM.

For the molecule `N#C/C(=C\c1ccc(O)c(O)c1)C(=O)NCc1ccccc1` [tyrphostin AG 490], the IC50 against PI5P4Kα [1] (setting [5]) was 89 µM.

`N#C/C(=C\c1ccc(O)c(O)c1)C(=O)Nc1ccccc1` [tyrphostin AG 494]: the IC50 at PI5P4Kα [1] (setting [5]) was 89 µM.

As to `N#C/C(=C\c1ccc(O)c(O)c1)C(=O)NCCCNC(=O)/C(C#N)=C/c1ccc(O)c(O)c1` [tyrphostin AG 537], at PI5P4Kα [1] (setting [5]), the half-maximal inhibitory concentration (IC50) worked out at 32 µM.

As for `N#C/C(=C\c1ccc(O)c(O)c1)C(=O)c1ccc(O)c(O)c1` [tyrphostin AG 538], the IC50 against PI5P4Kα [1] (setting [5]) is 14 µM; in assay [4] it was 0.06 µM. In addition, the “inhibition of IGF1R in a cell assay (in words)” value in the assay with IGF1R is given as “inhibited IGF1R in a similar dose-dependent manner”.

Molecule `N#C/C(=C\c1ccc(O)c(O)c1)C(=O)NCCCc1ccccc1` [tyrphostin AG 555] yielded an IC50 on PI5P4Kα [1] (setting [5]) of 50 µM.

On to `N#C/C(=C\c1c[nH]c2ccccc12)C(=O)c1ccc(O)c(O)c1` [tyrphostin AG 808], for which the IC50 against PI5P4Kα [1] (setting [5]) is 18 µM.

At PI5P4Kα [1] (setting [5]), `COc1cc2ncnc(Nc3cccc(Cl)c3)c2cc1OC` [tyrphostin AG 1478] yielded an IC50 of 100 µM.

These data come from publication PMC3542272, “A Homogeneous, High-Throughput Assay for Phosphatidylinositol 5-Phosphate 4-Kinase with a Novel, Rapid Substrate Preparation” (PLoS ONE, 2013).
